Each compound was assayed against URAT1 (Homo sapiens, UniProt Q96S37) (assay: URAT1-model assay: 14C-uric acid transport in HEK293/URAT1-model cells). Details: HEK293 cells transfected with model URAT1 construct; 14C-uric acid uptake, 10 minutes at room temperature; read-out: URAT1 EC50 Activity Ranking.
URAT1, sequence (Q96S37 whole entry, looked up): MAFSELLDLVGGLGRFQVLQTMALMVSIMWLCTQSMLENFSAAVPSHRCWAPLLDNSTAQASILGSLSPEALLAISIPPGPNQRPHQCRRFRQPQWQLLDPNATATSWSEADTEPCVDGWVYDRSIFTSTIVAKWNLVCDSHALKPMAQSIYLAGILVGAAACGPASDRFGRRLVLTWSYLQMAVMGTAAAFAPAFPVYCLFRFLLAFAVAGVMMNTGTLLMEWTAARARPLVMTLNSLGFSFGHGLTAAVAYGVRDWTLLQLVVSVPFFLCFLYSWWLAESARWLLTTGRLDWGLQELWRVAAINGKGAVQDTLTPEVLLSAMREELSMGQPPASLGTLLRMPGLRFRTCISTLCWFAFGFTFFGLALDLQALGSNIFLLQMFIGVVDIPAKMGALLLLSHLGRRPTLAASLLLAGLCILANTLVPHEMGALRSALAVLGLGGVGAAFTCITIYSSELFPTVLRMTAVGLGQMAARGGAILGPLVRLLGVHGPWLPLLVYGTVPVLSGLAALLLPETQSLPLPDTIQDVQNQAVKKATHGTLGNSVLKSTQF
Assay type: cell-based
Description: Transfections of HEK293 cells with a model URAT1 construct was performed using L2000 transfection reagent (Invitrogen) as described by the manufacturer. After 24 h the transfected cells were split into 10 cm tissue culture plates and grown for 1 day after which the medium was replaced with fresh growth medium containing G418 (Gibco) at 0.5 mg/ml final concentration. Drug-resistant colonies were selected after approximately 8 days and then tested for ^14C-uric acid transport activity. The HEK293/URAT1-model cells are plated on Poly-D-Lysine Coated 96-well Plates at a density of 125,000 cells per well.
Cells were grown overnight (20-26 hours) at 37° C. in an incubator. […] Plates were incubated at room temperature for 10 minutes then washed 3 times with 50 μl Wash Buffer and 3 times with 250 μl Wash Buffer. Microscint 20 Scintillation Fluid was added and plates were incubated overnight at room temperature to equilibrate. Plates are then read on the TopCount Plate Reader and an EC50 value generated.
Compound `N#Cc1ccc(-c2cnccc2SCC(=O)O)c2ccccc12` [Example 2B] has an EC50 of 0.5 to 10 µM.
With `CC(C)(Sc1ccncc1-c1ccc2c(c1)OCO2)C(=O)O` [Example 2E] the EC50 was 0.5 to 10 µM.
Compound `N#Cc1ccc(-c2cnccc2SC(F)(F)C(=O)O)c2ccccc12` [Example 2FF] has an EC50 of 0.5 to 10 µM.
`CC(C)(Sc1ccncc1-c1cc2ccccc2[nH]1)C(=O)O` [Example 2G] was tested, and the EC50 was 0.5 to 10 µM.
Work on `CC(C)(Sc1ccncc1-c1ccc(C(=O)O)cc1F)C(=O)O` [Example 2HHH] yielded an EC50 of 0.5 to 10 µM.
For `COc1ncc(-c2cnccc2SC(C)(C)C(=O)O)cn1` [Example 2HH], the EC50 was 0.5 to 10 µM.
`CC(C)(Sc1ccncc1-c1ccc2c(c1)OCCO2)C(=O)O` [Example 2I] showed an EC50 of 0.5 to 10 µM.
`Cc1ccc(-c2cnccc2SC(C)(C)C(=O)O)cn1` [Example 2LL] was tested, and the EC50 was 0.5 to 10 µM.
`CC(C)(Sc1ccncc1-c1cccc2cnccc12)C(=O)O` [Example 2L] showed an EC50 of 0.5 to 10 µM.
`CC(C)(Sc1ccncc1-c1cccnc1)C(=O)O` [Example 2M] gave an EC50 of 0.5 to 10 µM.
Compound `CN(C)c1ccc(-c2cnccc2SC(C)(C)C(=O)O)cc1` [Example 2OO] has an EC50 of 0.5 to 10 µM.
In the case of `Cn1cc(-c2cnccc2SC(C)(C)C(=O)O)cn1` [Example 2QQ], the EC50 is reported as 0.5 to 10 µM.
In the case of `CC(C)(Sc1ccncc1-c1ccc(CC#N)cc1)C(=O)O` [Example 2RR], the EC50 is reported as 0.5 to 10 µM.
Work on `CC(C)(Sc1ccncc1-c1ccccc1)C(=O)O` [Example 2R] yielded an EC50 of 0.5 to 10 µM.
Compound `CC(C)(Sc1ccncc1-c1ccc(CC(N)=O)cc1)C(=O)O` [Example 2SS] has an EC50 of 0.5 to 10 µM.
With `COc1ccc2cc(-c3cnccc3SC(C)(C)C(=O)O)ccc2c1` [Example 2V] the EC50 was 0.5 to 10 µM.
Work on `CC(C)(Sc1ccncc1-c1ccc(N)cc1)C(=O)O` [Example 2YY] yielded an EC50 of 0.5 to 10 µM.
Compound `CCOc1ccc2cc(-c3cnccc3SC(C)(C)C(=O)O)ccc2c1` [Example 2Y] has an EC50 of 0.5 to 10 µM.
For `CC(C)(Sc1ccncc1-c1ccc2ccccc2c1)C(=O)O` [Example 2Z], the EC50 was 0.5 to 10 µM.
`N#Cc1ccc(-c2cccnc2SCC(=O)O)c2ccccc12` [Example 4B] was tested, and the EC50 was 0.5 to 10 µM.
For `CC(C)(Sc1ncncc1-c1ccc(C#N)c2ccccc12)C(=O)O` [Example 6B, 2-(5-(4-cyanonaphthalen-1-yl)pyrimidin-4-ylthio)-2-methylpropanoic Acid], the EC50 was 0.5 to 10 µM.

Reference: patent publication US10266493B2, “Thioacetate compounds, compositions and methods of use” (Ardea Biosciences, Inc., priority 2010, dated 2019)
